From the NIST ThermoML archive (doi:10.1016/j.jct.2016.04.020)

Assay: mn = molality of the nth substance listed, in mol/kg
Conditions: 101.3 kPa, Liquid, Vibrating tube method

O=C([O-])CC(O)(CC(=O)[O-])C(=O)[O-].[Li+].[Li+].[Li+] [trilithium citrate] + O
mass density [kg/m3]
Conditions | 313.15 K | 318.15 K | 323.15 K | 328.15 K | 333.15 K | 338.15 K | 343.15 K
m1 = 0.0128 | 994.08 | 992.05 | 989.86 | 987.52 | 985.04 | 982.43 | 979.51
m1 = 0.0256 | 995.83 | 993.81 | 991.58 | 989.24 | 986.7 | 984.02 | 981.2
m1 = 0.06 | 1000.28 | 998.26 | 996.08 | 993.72 | 991.24 | 988.59 | 985.85
m1 = 0.1021 | 1005.41 | 1003.38 | 1001.19 | 998.82 | 996.31 | 993.66 | 990.99
m1 = 0.1956 | 1017.49 | 1015.42 | 1013.22 | 1010.84 | 1008.42 | 1005.8 | 1002.94
m1 = 0.293 | 1029.43 | 1027.35 | 1025.12 | 1022.76 | 1020.27 | 1017.67 | 1014.95
m1 = 0.3876 | 1040.59 | 1038.47 | 1036.24 | 1033.86 | 1031.35 | 1028.73 | 1026.06
m1 = 0.4799 | 1051.12 | 1048.98 | 1046.74 | 1044.36 | 1041.87 | 1039.22 | 1036.55
m1 = 0.6695 | 1072.2 | 1070.04 | 1067.78 | 1065.38 | 1062.87 | 1060.25 | 1057.62
m1 = 0.7552 | 1081.14 | 1078.96 | 1076.68 | 1074.27 | 1071.77 | 1069.15 | 1066.41
m1 = 0.8394 | 1090.09 | 1087.9 | 1085.62 | 1083.21 | 1080.69 | 1078.19 | 1075.46
m1 = 0.9407 | 1100.41 | 1098.21 | 1095.92 | 1093.5 | 1090.99 | 1088.43 | 1085.78
m1 = 1.33 | 1136.47 | 1134.23 | 1131.93 | 1129.51 | 1127.01 | 1124.43 | 1121.83
m1 = 1.74 | 1172.18 | 1169.9 | 1167.57 | 1165.14 | 1162.66 | 1160.09 | 1157.54
